Reference: a melting point compilation (Tetko et al.; mined from patent text by program, amines drawn as free bases though some values may be those of a salt)

melting point [°C]	SMILES
48 to 50	C[Si]1(C)CCCCCC[Si](C)(C)O[Si](C)(C)CCCCCC[Si](C)(C)O1
205	Cc1cc(O)c([N+](=O)[O-])c(=O)n1CC(=O)O
91 to 93	CCOC(=O)C=CCOc1ccc(C23CC4CC(CC(C4)C2)C3)cc1
170 to 171	O=C(O)CCOc1ccccc1-c1nc(-c2ccccc2)no1
144 to 145	CCCCCCCCCNC(=O)NCC(=O)O
153 to 158	CCCCN(CCCC)c1ccc(C=CC2=C(OC)C(=CC=CC3=C(C#N)C(=C(C#N)C#N)OC3(c3ccccc3)C(F)(F)F)CC(C)(C)C2)c(OC)c1 (configuration not stated)
180	CCOC(=O)c1cc2c(Cl)cc(Cl)cc2[nH]1
129 to 132	CCS(=O)(=O)NC(=O)c1cccc(N)c1
143 to 144	O=C(C=Cc1cccnc1)NCCCCN1CCN(C(c2ccccc2)c2ccccc2)CC1
132	CC(C)[Si](Oc1ccc2c(c1)OCC(N1CCC(O)(c3ccccc3)CC1)C2=O)(C(C)C)C(C)C (configuration not stated)
190 to 191	CC(C)(C)OC(=O)Nc1cc(N2CCOCC2)c(C#Cc2ccccc2)cc1[N+](=O)[O-]
90 to 92	CC(C)(C)NCC(O)COc1ccc(OCC2CC2)cc1 (configuration not stated)
110 to 112	Nc1ccc(OCc2ccccc2)c(CCCc2ccc(NC(=O)Cc3cccnc3)cc2)c1
176 to 177	Cc1cccc(Nc2nncc3ccccc23)c1
75	CS(=O)(=O)NC(=O)CC1(c2ccc(OCc3ccc4ccccc4n3)cc2)CCCC1
265	COc1ccc(N2CCN(c3ccc(NC(N)=S)cc3)CC2)cc1
149 to 151	Cc1c(NC(=O)c2ccc(C(C)(C)C)cc2)cccc1-c1cc(Br)c(=O)n(C)c1
90 to 105	COc1ccc(C(C)COc2nc(N)c3ncn(C4OC(CO)C(O)C4O)c3n2)cc1 (configuration not stated)
166 to 170	CC(=O)N[C@@H](CC(=O)c1ccc2oc3ccccc3c2c1)C(=O)O
133 to 136	O=[N+]([O-])c1oc2c(CCO)cccc2c1-c1ccccc1
155 to 160	O=C(N[C@H](CO)c1ccccc1)c1[nH]c2ccc(Cl)cc2c1S(=O)(=O)c1ccccc1

melting point [°C]	SMILES
108 to 110	Cc1cc(C)c2cccc(OCc3c(Cl)ccc(S(=O)(=O)N4CCC[C@H]4C(=O)NCCCNC(=O)c4cccc(C(N)=NO)c4)c3Cl)c2n1
78 to 79	COP(=O)(CC(=O)COc1cccc(Cl)c1)OC
176 to 177	Cc1nc2ccccc2c(NCc2ccccc2)c1C(C)O (configuration not stated)
156 to 158	Cc1c(C)c(N2CCN(c3ccc(CN)cc3)CC2)c(C)c2c1OC(C)(C)C2
290	NS(=O)(=O)c1ccc(-c2noc(-c3cnn4c(C5CC5)cc(-c5ccc(C(F)(F)F)cc5)nc34)n2)s1
102 to 103	CC(=O)OCCn1nc(-c2cc(C(C)(C)C)c(O)c(C(C)(C)C)c2)c2ccc(C)nc21
211 to 213	CC(=O)NCCSc1ccnc(CSc2nc3ccccc3[nH]2)c1C
155 to 157	Cc1cc(C)c(CC(=O)O)c(C#N)c1
128 to 129	Cn1c(CNCC2CCOC2)cc2cc(NC(=O)c3ccc(OC[C@@H]4CCCO4)cc3)ccc21 (some centres not stated)
293 to 295	CC1(N)CN(c2cc3c(cc2F)c(=O)c(C(=O)O)cn3C2CC2)C1
210 to 211	Cc1ccc(-c2c3cc(C)ccc3nc3ccc(C)cc23)cc1
106 to 110	CCCCc1oc2ccccc2c1C(=O)O
173 to 175	COC(=O)Cn1c(C(=O)Nc2nc(-c3cc(OC)c(C)cc3OC)c(CCC3CCCCC3)s2)cc2cc(OC)ccc21
99 to 101	CC1=CC(OC(=O)c2nc[nH]c2C)C(O)C(C)(C)CC1=O (configuration not stated)
188 to 192	Cn1c2ccccc2c2cc(C=O)c3ccccc3c21
144 to 145	CCOC(=O)CSC1=CCC2C3CCC4=CC(=O)C=CC4(C)C3(F)C(O)CC12C (configuration not stated)
81 to 83	Cn1c(C(F)(F)F)c(Cl)c(=O)n(-c2c(F)ccc3nc(Cl)sc23)c1=O
134 to 135	CSc1nnc(-c2ccccc2)n1C
82 to 84	CN(C)C1CCN(c2nc(N3CCOCC3)c3ncnc(NCCCc4ccccc4)c3n2)CC1
249 to 252	c1cnc2ncncc2c1

Second part, the molecule before the results:

SMILES	melting point [°C]
CCc1c(-c2ccncc2)[nH]c2ccc(C3=NNC(=O)CC3)cc12	> 300
C#CCn1c(-c2cc(Cl)nc(Cl)c2)nc(CC)c(OC)c1=O	112 to 115
CC(C)Oc1ccc2nc[nH]c(=O)c2c1	206 to 208
CC(C)(C)OC(=O)Nc1ccc(-c2ccc(F)cc2F)cc1NC(=O)CC(=O)c1ccnc(C#N)c1	160 to 161
CC(CO)C1CCC2C3C=CC4=CC(=O)C5OC5C4(C)C3CCC12C (configuration not stated)	158 to 161
CCCC1=NN(c2ccncc2)C(=O)C1=CNc1ccccc1CC	159
N#Cc1ccc(C2CCCC(=O)N2c2ccccc2)cc1 (configuration not stated)	120
CCCCCc1c(C(C)C)cc(C(C)C)c(C(C)=O)c1-c1ccc(F)cc1	123 to 124
C=Cc1cnc(C)c(OC(C)=O)c1CSC(C)=O	72 to 73
COc1cc(N)c([N+](=O)[O-])c(OC(F)F)c1OC	141 to 142
COc1cc(C=CCn2cncn2)ccc1OCc1ccccc1	70 to 72
Cc1ccc(Oc2ccc(C3NC(C(=O)O)CS3)cc2C#N)c(O)c1 (configuration not stated)	150 to 152
O=C(NCCc1c[nH]cn1)c1[nH]c2ccc(Cl)cc2c1S(=O)(=O)c1ccccc1	220 to 222
COC(=O)c1c(OC)nc2ccc(Cl)cc2c1-c1ccccc1Cl	151 to 152
C[C@@H]1CCC[C@H](C)N1CCNC(=O)CN1C(=O)CCC1(C)C	94 to 94.5
O=C(CC1CCOCC1)N[C@H]1CC[C@H](CCN2CCC(c3ccc(F)c4occc34)CC2)CC1	188
CN1C(=O)CSC(c2cccc(Cl)c2)c2cc(C(O)(c3ccc(Cl)cc3)c3cncn3C)ccc21 (configuration not stated)	186
COc1ccc2c(c1OC)C(=O)c1ccccc1-2	110 to 111
COC(=O)CCCc1cc2cc(Cl)ccc2n1S(=O)(=O)c1cccc2cccnc12	120 to 124

SMILES	melting point [°C]
NC(=O)c1cc(OCCNCC(O)c2ccco2)ccc1O (configuration not stated)	169 to 171
COc1ccc(S(=O)(=O)N2C(=O)C(c3ccccc3OC)(N3Cc4ccccc4C3C(=O)N(C)C)c3cc(Cl)ccc32)c(OC)c1 (configuration not stated)	168
CC12CCC3c4ccc(O)cc4CCC3(C=C(F)F)C1CCC2O (configuration not stated)	154 to 156
Cc1ccc(OCCOCCCCCCNCc2c(CO)ccc(O)c2CO)cc1C	65 to 68
O=C(CCCN1CCN(c2ccc(F)cc2)CC1)NC1c2ccccc2CSc2ccccc21 (configuration not stated)	194
COc1cc(C(=O)N2CCC(CCN3CCC(Nc4nc5ccccc5n4Cc4ccccn4)CC3)(c3ccc(F)cc3)C2)cc(OC)c1OC (configuration not stated)	110 to 119
COc1nc(N2CCOCC2)cnc1NS(=O)(=O)c1cccc(Cl)c1Cl	167 to 168
CC(C)n1c(=O)c2cc(C(=O)O)cn2c2ccccc21	238 to 240
COc1ccc(NN=C(Sc2ccc(C(C)(C)C)cc2)C(C)=O)cc1	111 to 113
Cc1cccc(-c2ncc(NC(=O)OCc3ccccc3)c(=O)n2CC(=O)NC(Cc2ccccc2)C(=O)C(F)(F)F)c1 (configuration not stated)	128 to 132
CCCc1nc2cnc3cc(C)ccc3c2o1	65 to 68
CC(Cc1ccccc1)NC(=O)C(F)(F)F (configuration not stated)	82 to 83
CCCc1nc2c(N)nc(C)c(C)c2n1CCCS(C)(=O)=O	154 to 155
CCOP(=O)(OCC)C(CCc1cc(C)nc2c(Cl)c(-c3ccccc3)nn12)P(=O)(OCC)OCC	66 to 68
CC12CCC(C(=O)O)=CC1=CCC1C2CCC2(C)C(C(=O)C3CCCCC3)CCC12 (configuration not stated)	217 to 220
CN(C)Cc1nnc2n1-c1ccc(C(F)(F)F)cc1C(c1ccccc1)=[N+]([O-])C2	188 to 190
CCOC(=O)c1c(C)nc2c(cnn2CCCC#N)c1OCC	99
Cn1c(Br)nc2c([N+](=O)[O-])cc(Br)cc21	235 to 236
CC(C)CCCC(C)NC1=NS(=O)(=O)c2sc(Cl)cc2N1 (configuration not stated)	197 to 199

SMILES	melting point [°C]
COc1ccc2c(c1)c(-c1[nH]c3nccnc3c1C)cn2C	243 to 244
c1ccc(Cn2c3c(c4ccccc42)CCC(Cc2nnn[nH]2)S3)cc1 (configuration not stated)	160 to 165
CNC(=O)c1cnn(-c2ccccc2)c1C#N	203 to 205
CCOC(OCC)N1C(=O)C2(CCCCC2)c2cc(-c3cc(F)cc(C#N)c3)ccc21	146
FC(F)(F)COc1ccc(-c2cc(C(F)(F)F)n3ncc(-c4cccnc4)c3n2)cc1C(F)(F)F	181
Cc1ccc2[nH]c(-c3ccc(S(N)(=O)=O)cc3)c(-c3ccccc3)c2c1	242 to 244
CCOC(=O)C1=C(N)NC(N)=C(C(=O)OC(C)C)C1c1ccccc1 (configuration not stated)	170
C=CCc1c(Cl)cc2c(c1O)CCC2	37 to 39
COC(=O)CC1(C)CCc2cc(C#N)ccc2C1=O (configuration not stated)	117
CC(C)(C)OC(=O)C(Nc1ccccc1)c1cccc(Br)c1 (racemic)	90
CC(CCC(=O)O)(c1ccc(OCc2ccc3ccc(Cl)cc3n2)cc1)c1ccc(OCc2ccc3ccc(Cl)cc3n2)cc1	88 to 90
Cc1cc(-n2cnnn2)ccc1[N+](=O)[O-]	166 to 168
Cc1nnc2n1-c1ccccc1C(c1ccc(Cl)cc1)=NN2Cc1ccc(N)cc1	234 to 237
CC(C)COC(=O)N[C@@H](CC(C)C)C(=O)N[C@@H](C(C)C)[C@@H](O)c1c(-c2ccccc2)c1=O	145 to 146
CCCN(CCC)C1Cc2cccc3[nH]c(=O)n(c23)C1 (configuration not stated)	190 to 192
CCOc1ccc(-c2ccc3c(c2)C=C(C(=O)O)CCO3)cc1	269 to 271
N#Cc1cccc(-c2ccccc2)n1	65.2 to 66.1
COc1ccc(CNC(=O)c2ccccc2N)cc1	104 to 105
